The values below come from publication PMC7018034, “Antimicrobial activity of Ib-M peptides against Escherichia coli O157: H7” (PLoS ONE, 2020).

The subject of data set [1] is E. coli O157: H7 (ATCC 43888). In words: microbe, parasite or virus in culture. The format is cell-based, Escherichia coli O157: H7. To be noted: for SI (selectivity index) E. coli O157: H7 ATCC 43888: ratio CC50 in VERO cells / MIC in ATCC 43888, maximum evaluated concentration used where CC50 not determined. The method, then:
(§1) MIC was determined using the microdilution method as described in protocol M07-A9 of the Clinical and Laboratory Standards Institute. Briefly, 1:2 serial dilutions of Ib-M peptides in MHB were placed in a 96-well round-bottom plate at concentrations ranging from 100 to 0.05 μM; or reference antibiotics STP and GNT between 200 to 0.1 μM. The bacterial inoculum was prepared from a subculture of E. coli O157: H7 (ATCC 43888 or AC188) in LBB incubated for 18–24 hours at 35 ± 2°C before to the test. The bacteria suspension was diluted to 1x10^8 colony forming units (CFU)/mL, to obtain a turbidity equivalent to 0.5 on the McFarland scale, confirmed by spectrophotometry upon reaching an absorbance between 0.08–0.1 at a wavelength of 625 nm; then a 1:200 dilution in MHB was performed to obtain a final concentration of 5x10^5 CFU/mL. The diluted bacterial suspension was added to the 96-well plate containing the serially diluted peptides. The final volume of 200 μL per well consisted of 100 μl of the compound and 100 μL of diluted bacteria suspension. Negative and positive growth controls were performed by adding only MHB or E. coli O157: H7 with MHB to the wells, respectively. At the end of the incubation time, MIC was determined as the lowest compound concentration at which no bacterial growth was observed.

Data set [2] concerns E. coli O157: H7 clinical isolate (AC188). The data set can be described thus: microbe, parasite or virus in culture. The format is cell-based, Escherichia coli O157: H7. To be noted: for SI (selectivity index) E. coli O157: H7 AC188: ratio CC50 in VERO cells / MIC in AC188, maximum evaluated concentration used where CC50 not determined. On the procedure:
as §1

For data set [3], the system named is E. coli O157: H7 (ATCC 43888). The data set can be described thus: microbe, parasite or virus in culture. It counts as cell-based, Escherichia coli O157: H7. On the procedure:
(§2) MBC was determined as described in the M26-A protocol of the CLSI, 1999 [13]. […] Blood agar cultures were incubated at 35 ± 2°C for 18–24 hours, and the number of CFU was estimated.

For data set [4], the system named is E. coli O157: H7 clinical isolate (AC188). In words: microbe, parasite or virus in culture. The format is cell-based, Escherichia coli O157: H7. The method, then:
as §2

The next data set has as its system VERO cells (ATCC CCL-81). In words: Cytotoxicity, MTT. The format is cell-based. Conditions: 24 h exposure, 595 nm, mean ± S.D., triplicate in two independent experiments. The method, then: VERO cells at a concentration of 3x10^4 cells/mL were plated in 96 flat-bottom wells and incubated for 24 hours at 37°C in a 5% CO2 atmosphere. Subsequently, the cells were exposed to 1:2 serial dilutions of Ib-M peptides in the range from 400 to 1.6 μM and the reference antibiotics between 3200 and 1.6 μM. Control cells were maintained without peptides or reference antibiotics. After 24 hours of incubation, VERO cells viability was determined using the MTT (3- (4,5-dimethiazol-2-yl) -2,5-diphenyltetrazole bromide) colorimetric technique (Mosmann, 1983). To do so, 20 μL/well of MTT was added at a concentration of 5 mg/mL and incubated for 4 hours. After that time, the culture medium was removed from the wells, and 100 μL of dimethylsulfoxide was added to solubilize the formazan crystals. Absorbance was determined by spectrophotometry using a wavelength of 595 nm.
The 50% cytotoxic concentrations (CC50) were calculated by sigmoid regression analysis from the inhibition percentages using the XLFit program (^©2019 IDBS). The Selectivity Index (SI) was calculated as the ratio between CC50 in VERO cells and the MICs in E. coli O157: H7 [17]. For those compounds whose CC50 could not be determined, the maximum evaluated concentration was used to calculate the respective SI.

A further data set concerns E. coli. Further details: method as in PMID 29671805, PMID 19952307. Conditions: in vitro activity reported against E. coli; cited from earlier work.
Data set [5] deals with E. coli O157: H7 (ATCC 43888). The format is cell-based, Escherichia coli O157: H7. Conditions: lag phase, 0.5xMIC, at 24 hour, turbidity at 595 nm. On the procedure: The kinetics of cell growth of E. coli O157: H7 in the presence of the peptides were followed during 24 hours. The tests were performed with the reference strain ATCC 43888, and the antibacterial activity of the compounds was evaluated in the latency phase (lag phase) and the logarithmic phase (log phase).
For the lag phase, E. coli O157: H7 at 5x10^5 CFU/mL with MHB in 96-well plate was treated with Ib-M peptides at a concentrations of 0.5xMIC, 1xMIC, 2xMIC in a final volume of 200 μL/well for 24 hours at 37°C. The turbidity was determined spectrophotometrically at 595 nm for samples taken at 0, 2, 4, 6, 8, 10, 12 and 24 hours.

Setting [6] is: strain ATCC 43888, MHB, 5x10^5 CFU/mL, mean ± S.D., triplicate in two independent experiments.
The mark [7] stands for this setting: clinical isolate AC188, MHB, 5x10^5 CFU/mL, mean ± S.D., triplicate in two independent experiments.
The mark [8] stands for this setting: strain ATCC 43888, colony count <= 10 on blood agar, mean ± S.D., triplicate in two independent experiments.
Where [9] appears, read: clinical isolate AC188, colony count <= 10 on blood agar, mean ± S.D., triplicate in two independent experiments.

Values after ≈ are worked out from the molar mass of the structure shown. Values joined by “and” are separate entries in the source; they are usually repeats but may differ in a detail not shown here. Identical values can stand only once. Ends that are not written are not given here.

On to EWGRRMMGWRPGRRMMRRWW-NH2 [Ib-M5], for which the MIC was found to be 8.3 ± 3.2 µM in data set [1] (setting [6]) and 4.7 ± 1.7 µM in data set [2] (setting [7]). Further, the MBC was 15.6 ± 7.7 µM in data set [3] (setting [8]) and 7.3 ± 2.6 µM in data set [4] (setting [9]). In the data set with VERO cells (ATCC CCL-81), the “CC50 VERO Cells” value came out at 315.3 ± 49.1 µM.

Turning to EWGRRMMGRGPGRRMMRRWW-NH2 [Ib-M4], the MIC came out at 12.5 ± 0.0 µM in data set [1] (setting [6]) and 6.3 ± 0.0 µM in data set [2] (setting [7]). Further, the MBC came to 22.9 ± 5.1 µM in data set [3] (setting [8]) and 15.6 ± 10.3 µM in data set [4] (setting [9]). The “CC50 VERO Cells” value with VERO cells (ATCC CCL-81) was > 400 ± 0.0 µM.

With lactoferricin, the MIC in the data set on E. coli is 2 µM.

Turning to magainin 2, the MIC in the data set with E. coli is 8 µM.

For the compound `[H]/N=C(/N)N[C@H]1[C@H](O)[C@@H](O)[C@H](O[C@@H]2O[C@@H](C)[C@](O)(C=O)[C@H]2O[C@@H]2O[C@@H](CO)[C@H](O)[C@@H](O)[C@@H]2NC)[C@@H](N/C(N)=N\[H])[C@@H]1O` [STP, Streptomycin, reference compound], the MIC is 9.4 µM (≈ 5.47 µg/mL) in data set [1] (Escherichia coli, ATCC43888); 9.4 ± 3.4 µM (≈ 5.47 µg/mL) in data set [1] (setting [6]); 66.7 µM (≈ 38.8 µg/mL) in data set [2] (Escherichia coli); 66.7 ± 25.8 µM (≈ 38.8 µg/mL) in data set [2] (setting [7]). Moreover, the “SI (selectivity index) E. coli O157: H7 ATCC 43888” value in data set [1] was >340.4. Also, the “SI (selectivity index) E. coli O157: H7 AC188” value in data set [2] was >48. Moreover, the MBC in data set [3] (Escherichia coli, ATCC43888) is 11.5 µM (≈ 6.69 µg/mL); in data set [3] (setting [8]), 11.5 ± 2.6 µM (≈ 6.69 µg/mL); in data set [4] (Escherichia coli), 108 µM (≈ 63 µg/mL); in data set [4] (setting [9]), 108.3 ± 49.2 µM (≈ 63 µg/mL). In addition, the “CC50 VERO Cells” value in the data set with VERO cells (ATCC CCL-81) was >3200 ± 0 µM.

Take `CNC(C)C1CCC(N)C(OC2C(N)CC(N)C(OC3OCC(C)(O)C(NC)C3O)C2O)O1` (stereo not shown) [GNT, Gentamicin, reference compound]: the MIC came to 1.8 ± 0.6 µM (≈ 0.86 µg/mL) in data set [1] (Escherichia coli, ATCC43888) and 2.3 ± 0.9 µM (≈ 1.1 µg/mL) in data set [2] (Escherichia coli). Further, the “SI (selectivity index) E. coli O157: H7 ATCC 43888” value in data set [1] is >1777.8. Moreover, in data set [2], the “SI (selectivity index) E. coli O157: H7 AC188” value is reported as >1391.3. The MBC in data set [3] (Escherichia coli, ATCC43888) was found to be 4.7 ± 1.7 µM (≈ 2.24 µg/mL); in data set [4] (Escherichia coli), 4.2 ± 1.6 µM (≈ 2.01 µg/mL). In addition, in the data set on VERO cells (ATCC CCL-81), the “CC50 VERO Cells” value is > 3200 µM and >3200 ± 0 µM.

Take EWGRRMMGWRPGRRMMRWWR-NH2 [Ib-M2]: the MIC in data set [1] (setting [6]) amounted to 4.7 ± 1.7 µM; in data set [2] (setting [7]), 3.7 ± 1.28 µM. For the same compound, the MBC amounted to 6.8 ± 3.1 µM in data set [3] (setting [8]) and 4.2 ± 1.6 µM in data set [4] (setting [9]). Further, in the data set with VERO cells (ATCC CCL-81), the “CC50 VERO Cells” value is 197.5 ± 2.4 µM.

EWGRRMMGRGPGRRMMRWWR-NH2 [Ib-M1]: the MIC in data set [1] (setting [6]) was found to be 4.7 ± 1.7 µM; in data set [2] (setting [7]) it was 1.6 ± 0.0 µM. The MBC in data set [3] (setting [8]) was found to be 6.3 ± 0.0 µM; in data set [4] (setting [9]) it was 3.7 ± 1.3 µM. Further, the “CC50 VERO Cells” value with VERO cells (ATCC CCL-81) is 395.2 ± 18.3 µM. Further, in data set [5], the “percentage of E. coli growth inhibition” value is given as “higher than 63%”.

With EWGRRMMGWGRGRRMMRRWW-NH2 [Ib-M6], the MIC in data set [1] (setting [6]) was 9.4 ± 3.4 µM; in data set [2] (setting [7]), 4.7 ± 1.7 µM. Also, the MBC worked out at 11.5 ± 7.3 µM in data set [3] (setting [8]) and 10.4 ± 3.2 µM in data set [4] (setting [9]). For the same compound, the “CC50 VERO Cells” value in the data set with VERO cells (ATCC CCL-81) turned out to be 310.9 ± 4.4 µM.
